Measured values reported in ChEMBL document CHEMBL1141360, “Kadsuralignans H-K from Kadsura coccinea and their nitric oxide production inhibitory effects” (J Nat Prod, 2007).
pIC50: −log10 of the molar value. Active and inactive are the calls of the source. No cut-off for these calls is given here.

Key:
RAW264.7 [1] = experiment: Inhibition of LPS and INF-gamma-induced nitric oxide production in mouse RAW264.7 cells after 16 hrs; settings: for pIC50: RAW264.7, 16 h
RAW264.7 [2] = experiment: Inhibition of LPS-induced nitric oxide production in mouse RAW264.7 cells; assay type: functional, cell-based

## C/C=C(/C)C(=O)O[C@H]1C2=CC(=O)C(OC)=C(OC)[C@@]23COc2c4c(cc(c23)[C@H](OC(C)=O)[C@H](C)[C@]1(C)O)OCO4
RAW264.7 [1]
  Activity: inactive

## COC1=C(OC)[C@]23COc4c5c(cc(c42)[C@H](OC(=O)c2ccccc2)[C@H](C)[C@](C)(O)[C@@H](OC(C)=O)C3=CC1=O)OCO5
RAW264.7 [1]
  Activity: inactive

## COc1cc2c(c(OC(=O)c3ccccc3)c1OC)-c1c(cc3c(c1OC)OCO3)[C@H](O)[C@H](C)[C@H](C)C2
RAW264.7 [1]
  Activity: inactive

## COc1cc([C@@H]2c3c(cc(OC)c(OC)c3O)C[C@@H](C)[C@H]2C)cc2c1OCO2 [KADSURALIGNAN H]
RAW264.7 [1]
  pIC50: 4.71

## C/C=C(\C)C(=O)Oc1c(OC)c(OC)cc2c1-c1c(cc3c(c1OC)OCO3)[C@H](O)[C@H](C)[C@H](C)C2 [KADSURALIGNAN I]
RAW264.7 [1]
  pIC50: 4.06

## CCC(C)C(=O)Oc1c(OC)c(OC)cc2c1-c1c(cc3c(c1OC)OCO3)[C@H](O)[C@H](C)[C@H](C)C2 (stereo partly drawn) [KADSURALIGNAN J]
RAW264.7 [1]
  pIC50: 4.47

## O=c1c(O)c(-c2ccc(O)c(O)c2)oc2cc(O)cc(O)c12 [QUERCETIN]
RAW264.7 [1]
  pIC50: 4.60
RAW264.7 [2]
  pIC50: 4.57
